This note sets out measurements from patent US20090137493A1, “Inhibition of tumor metastases using protein kinase C (PKC) inhibitors” (priority 2007, published 2009).

Bridges are numbered along the chain shown (N, C = ends). Where no end group is shown, it is not given here.

In one data set the test system is JC cells. Nature of the data set: Wound healing (migration) assay, JC. It is filed as cell-based, mouse. The conditions noted are these: peptide 1 uM, re-applied every 2 h for 8 h. The protocol:
FIGS. 15A-15D are micrographs showing the efficacy of TAT carrier peptide (TAT; FIG. 15A), αV5-3-TAT peptide (Alpha; FIG. 15B), βIIV5-3 peptide (Beta2; FIG. 15C), and εV1-2 (Epsilon; FIG. 15D) on JC cell migration.
(§1) To investigate the role of PKC inhibitors in reducing the migration of tumor cells, in vitro migration assays were performed using MDA-MB-231 breast cancer cells (FIGS. 12A-12D), MCF-7 breast cancer cell (FIGS. 13A-13D), JC cells (FIGS. 15A-15D), and 4T1 cells (FIGS. 16A-16D), in the presence of TAT carrier peptide (TAT), αV5-3-TAT peptide (Alpha), βIIV5-3 peptide (Beta2), or εV1-2 peptide (Epsilon).
(§2) Wound healing assay: Human or mouse breast cancer cell lines were grown in 6-well plates until about 90% confluent. Cells were then grown in serum free media overnight, before media was changed to media +1% FBS and peptide PKC inhibitors added (1 uM), at the same time a pipette tip was drawn across the cell layer to create a scrape ‘wound’. PKC inhibitors were re-applied every 2 h for a total of 8 h, before cells were left for a further 12 h and then the scrape was examined under phase contrast microscopy.

Data set [1] in a line: Blood cell numbers (white blood cells, lymphocytes, neutrophils) in treated animals. Type of data set: in vivo. The source says:
(§3) FIGS. 11A-11B are bar graphs showing the relative serum levels of liver enzymes aspartate transaminase (AST; FIG. 11A) and alanine transaminase (ALT; FIG. 11B) in animals treated with saline or TAT (untreated) or the αV5-3-TAT peptide (aV5-3). FIGS. 11C-11E are bar graphs showing the relative serum levels of white blood cells (FIG. 11C), lymphocytes (FIG. 11D), and neutrophils (FIG. 11E).
Rather, the numbers of white blood cells (FIG. 11C), lymphocytes (FIG. 11D), and neutrophils (FIG. 11E) were all increased in αV5-3 treated animals compared to control (TAT) treated animals.

The test system of data set [2] is matrix metalloproteinase 2 (MMP2). Nature of the data set: MMP2 activity in tumor cells from treated animals. The conditions noted are these: cells from primary tumors of treated animals, versus saline or TAT, FIG. 10C. Type of data set: in vivo. An excerpt: FIG. 10C is a bar graph showing the relative levels of matrix metalloproteinase 2 (MMP2) activity in tumor cells from animals treated with saline or TAT (untreated) or the αV5-3-TAT peptide (aV5-3).
(§4) Cells from primary tumors in animals treated with the αPKC inhibitor were also isolated and assayed for levels of CXCR4 (FIG. 10B) and levels of matrix metalloproteinase 2 (MMP2) activity (FIG. 10C).

Another data set relates to JC tumor cells. Nature of the data set: Growth rate of JC tumor cells in vitro. Type of data set: cell-based, mouse. The conditions noted are these: doses of 0, 1, 5 and 10 μM, compared to TAT carrier peptide control. The protocol:
(§5) FIGS. 6B-6C are bar graphs showing the affect of the αV5-3-TAT peptide on growth rate of JC tumor cells (FIG. 6B) and 4T1 tumor cells (FIG. 6C) in vitro. The cells treated with the TAT carrier peptide (TAT) or with αV5-3-TAT peptide (PKC alpha inhibitor), at doses of 0, 1, 5, and 10 μM.
(§6) To determine if the effects observed with the α and βIIPKC peptide inhibitors was due to a decrease in metastasis as opposed to a decrease in primary tumor growth, animals injected with 4T1 tumor cells were treated with saline, the αV5-3-TAT conjugate peptide (αPKC), or the βIIV5-3-TAT conjugate peptide (βPKC) and the number of tumors cells at the primary site of injection were determined.

The nature of data set [3]: Serum levels of liver enzymes AST and ALT in treated animals. It is filed as in vivo.
Source text: as §3

A further data set deals with CXCR4 chemokine receptor. Briefly: CXCR4 expression on the surface of tumor cells from treated animals. Type of data set: in vivo. The conditions noted are these: cells from primary tumors of treated animals, versus TAT, FIG. 10B.
Source text: FIG. 10B is a bar graph showing the relative expression levels of CXCR4 chemokine receptor on the surface of tumor cells from animals treated with the TAT carrier peptide (TAT) or the αV5-3-TAT peptide (Alpha inhibitor).
as §4

The next data set relates to tumor cells. Briefly: Survival of animals after intravenous administration of tumor cells. Type of data set: in vivo, mice. The conditions noted are these: versus saline (PBS). On the procedure: FIG. 9 is a graph showing the percent surviving animals in the time (in days) following intravenous administration of tumor cells. The mice were treated with saline (squares; PBS) or the αV5-3-TAT peptide (circles; peptide).

The test system of a further data set is beta-1 integrin. Briefly: Beta-1 integrin expression in cells from primary tumors. Type of data set: in vivo. The conditions noted are these: data not shown. The source says: FIG. 10A is a bar graph showing the relative expression levels of beta 1 (βI) integrin on the surface of tumor cells from animals with metastasis (Mets) or no metastasis (No mets).
To better understand the role of PKC inhibitors in reducing metastasis, tumor cells, cells from primary tumors in animals with metastasis (Mets) and without metastasis (No mets) were isolated and assayed for levels of beta-1 integrin (FIG. 10A). The levels of beta-1 integrin were reduced about 50% in animals with no metastasis.

Another data set has as its system 4T1 tumor cells. Nature of the data set: Growth rate of 4T1 tumor cells in vitro. It is filed as cell-based, mouse. The conditions noted are these: doses of 0, 1, 5 and 10 μM, compared to TAT carrier peptide control. The protocol:
as §5, §6

The test system of another data set is 4T1 cells. Nature of the data set: Wound healing (migration) assay, 4T1. The conditions noted are these: peptide 1 uM, re-applied every 2 h for 8 h. It is filed as cell-based, mouse. The protocol: FIGS. 16A-16D are micrographs showing the efficacy of TAT carrier peptide (TAT; FIG. 16A), αV5-3-TAT peptide (Alpha; FIG. 16B), βIIV5-3 peptide (Beta2; FIG. 16C), and εV1-2 (Epsilon; FIG. 16D) on 4T1 cell migration.
as §1, §2

The next data set has as its target T1, αPKC (Mus musculus, UniProt P20444).
T1 construct: endogenous in cells; host or cells: 4T1 murine mammary tumour cells grown as tumours in Balb/c mice
Nature of the data set: Translocation of αPKC in tumor cells (immunoblot of cytosol and particulate fractions). Type of data set: in vivo. The conditions noted are these: FIG. 5A. On the procedure: FIGS. 5A-5B are bar graphs showing the percentage of translocation of αPKC (FIG. 5A) and βIIPKC (FIG. 5B) […] in tumor cells treated with αV5-3-TAT peptide.
To further characterize inhibition of metastasis using the α and βIIPKC inhibitors, the percentage of translocation of αPKC (FIG. 5A) and βIIPKC (FIG. 5B), […] was measured.
On the technique in general: In western blotting, separated proteins are transferred to a membrane and probed.

On to “YGRKKRRQRRR-CC-QLVIAN (YGRKKRRQRRRCCQLVIAN; disulfide 12-13 (inferred)) [αV5-3-TAT]”, for which, in the data set with JC cells, the “migration of JC cells” value was “reduced”. Moreover, the “numbers of white blood cells” value in data set [1] (compared to control (TAT) treated animals, FIG. 11C) is “increased”. For the same substance, the numbers of lymphocytes entry in [1] (compared to control (TAT) treated animals, FIG. 11D) is “increased”. In addition, the numbers of neutrophils result in data set [1] (compared to control (TAT) treated animals, FIG. 11E) is “increased”. Besides, the signs of immunosuppression result in data set [1] (treated animals, FIGS. 11C-11E) is reported as “no signs of immunosuppression”. Besides, the “decrease of relative levels of MMP2 activity in tumor cells” value in data set [2] is “about 30%”. Further, in the data set on JC tumor cells, the “inhibition of growth of JC tumor cells in vitro” value is “does not substantially inhibit”. Moreover, the “decrease of relative serum level of aspartate transaminase (AST)” value in data set [3] (treated animals versus saline or TAT, FIG. 11A) was “about 5 fold”. The “decrease of relative serum level of alanine transaminase (ALT)” value in data set [3] (treated animals versus saline or TAT, FIG. 11B) is listed as 4-5 fold. For the same substance, in data set [3] (tumor-bearing treated animals), the “serum AST/ALT levels (marker of damage or toxicity of the liver)” value is “reversed abnormally elevated level of serum AST/ALT levels (a marker of damage or toxicity of the liver) to the normal range”. In addition, the “decrease of relative expression levels of CXCR4 chemokine receptor on the surface of tumor cells” value in the data set with CXCR4 chemokine receptor is given as 4-5 fold. Moreover, the survival time result in the data set with tumor cells was “longer survival times”. In addition, the beta-1 integrin expression result in the data set on beta-1 integrin is on record as “tended to decrease beta-1 integrin expression but the amount was not statistically significant”. Further, the “inhibition of growth of 4T1 tumor cells in vitro” value with 4T1 tumor cells was “does not substantially inhibit”. Also, the “migration of 4T1 cells in vitro” value with 4T1 cells is listed as “did not affect”. For the same substance, the “reduction of αPKC translocation” value with αPKC is on record as “about 40%”.
